From ChEMBL document CHEMBL2073959, “The human bile salt export pump: characterization of substrate specificity and identification of inhibitors” (Gastroenterology, 2002)
pKi: −log10 of the molar value.

Key:
[1] = biological target: T1, Bile salt export pump (Homo sapiens, UniProt O95342); assay: TP_TRANSPORTER: competitive inhibition of Taurocholate uptake in membrane vesicles prepared from High Five cells infected with the ABCB11 baculovirus; format: functional, cell membranes, BTI-TN-5B1-4, Membrane vesicle
T1 sequence (O95342 whole entry): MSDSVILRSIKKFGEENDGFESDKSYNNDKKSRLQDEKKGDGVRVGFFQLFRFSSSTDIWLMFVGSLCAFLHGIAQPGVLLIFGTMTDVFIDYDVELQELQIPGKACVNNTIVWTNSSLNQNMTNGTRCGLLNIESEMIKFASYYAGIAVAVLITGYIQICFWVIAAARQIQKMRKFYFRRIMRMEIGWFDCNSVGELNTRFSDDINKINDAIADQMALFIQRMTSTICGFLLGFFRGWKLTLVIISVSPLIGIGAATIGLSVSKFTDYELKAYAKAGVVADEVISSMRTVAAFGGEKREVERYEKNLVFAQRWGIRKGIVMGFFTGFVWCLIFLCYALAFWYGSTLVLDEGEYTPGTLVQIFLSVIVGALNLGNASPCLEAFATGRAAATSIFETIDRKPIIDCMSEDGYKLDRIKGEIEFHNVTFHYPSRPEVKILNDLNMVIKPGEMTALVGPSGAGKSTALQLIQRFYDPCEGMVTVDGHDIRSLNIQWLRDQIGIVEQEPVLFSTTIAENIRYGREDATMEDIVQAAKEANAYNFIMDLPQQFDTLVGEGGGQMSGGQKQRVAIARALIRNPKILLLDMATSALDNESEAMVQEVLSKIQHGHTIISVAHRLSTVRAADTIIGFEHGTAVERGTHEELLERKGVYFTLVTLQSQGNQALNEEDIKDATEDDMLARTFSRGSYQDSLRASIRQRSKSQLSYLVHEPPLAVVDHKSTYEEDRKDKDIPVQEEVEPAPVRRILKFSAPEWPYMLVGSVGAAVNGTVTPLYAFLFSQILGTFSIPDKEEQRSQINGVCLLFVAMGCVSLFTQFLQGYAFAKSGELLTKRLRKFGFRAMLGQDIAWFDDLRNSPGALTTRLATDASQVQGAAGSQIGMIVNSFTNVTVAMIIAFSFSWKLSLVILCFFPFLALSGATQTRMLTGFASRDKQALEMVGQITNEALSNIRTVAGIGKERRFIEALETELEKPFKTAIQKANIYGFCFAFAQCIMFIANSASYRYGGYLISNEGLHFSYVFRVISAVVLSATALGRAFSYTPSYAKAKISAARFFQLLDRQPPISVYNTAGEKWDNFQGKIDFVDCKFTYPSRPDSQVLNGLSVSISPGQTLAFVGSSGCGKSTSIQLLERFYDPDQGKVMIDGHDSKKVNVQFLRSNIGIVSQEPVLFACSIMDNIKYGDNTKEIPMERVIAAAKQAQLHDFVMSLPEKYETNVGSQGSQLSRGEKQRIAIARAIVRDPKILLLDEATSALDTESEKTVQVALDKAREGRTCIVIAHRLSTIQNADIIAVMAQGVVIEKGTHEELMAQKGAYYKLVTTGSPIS

[2] = biological target: T1, Bile salt export pump; assay: TP_TRANSPORTER: inhibition of Taurocholate uptake(Rifampicin SV 30uM, 50 % of control) in membrane vesicles prepared from High Five cells infected with the ABCB11 baculovirus; format: functional, cell membranes, BTI-TN-5B1-4, Membrane vesicle

Row | pKi [1] | pKi [2] | Structure (SMILES)
1 | 4.96 | – | C[C@H](CCC(=O)NCC(=O)O)[C@H]1CC[C@H]2[C@@H]3[C@H](O)C[C@@H]4C[C@H](O)CC[C@]4(C)[C@H]3C[C@H](O)[C@]12C [GLYCOCHOLIC ACID]
2 | 4.55 | – | C[C@H](CCC(=O)NCCS(=O)(=O)O)[C@H]1CC[C@H]2[C@@H]3[C@H](O)C[C@@H]4C[C@H](O)CC[C@]4(C)[C@H]3CC[C@]12C [TAUROCHENODEOXYCHOLATE]
3 | – | 4.51 | CO[C@H]1/C=C/O[C@@]2(C)Oc3c(C)c(O)c4c(O)c(cc(O)c4c3C2=O)NC(=O)/C(C)=C\C=C\[C@H](C)[C@H](O)[C@@H](C)[C@@H](O)[C@@H](C)[C@H](OC(C)=O)[C@@H]1C [RIFAMYCIN]

Row | Structure (SMILES) | pKi [1] | pKi [2]
4 | C[C@H](CCC(=O)NCC(=O)O)[C@H]1CC[C@H]2[C@@H]3[C@H](O)C[C@@H]4C[C@H](O)CC[C@]4(C)[C@H]3CC[C@]12C [GLYCOCHENODEOXYCHOLATE] | 5.15 | –
